PMC8667945, “Structure-based virtual screening and biological evaluation of novel small-molecule BTK inhibitors” (Journal of Enzyme Inhibition and Medicinal Chemistry, 2021)

Experiments:
[1] = molecular target: T1, Bruton tyrosine kinase (BTK) (Homo sapiens, UniProt Q06187); assay: Z'LYTE biochemical kinase inhibition assay, dose response
[2] = molecular target: T1, Bruton tyrosine kinase (BTK); assay: Z'LYTE biochemical kinase inhibition assay, single dose (% inhibition at […])

T1 sequence (Q06187 2-659): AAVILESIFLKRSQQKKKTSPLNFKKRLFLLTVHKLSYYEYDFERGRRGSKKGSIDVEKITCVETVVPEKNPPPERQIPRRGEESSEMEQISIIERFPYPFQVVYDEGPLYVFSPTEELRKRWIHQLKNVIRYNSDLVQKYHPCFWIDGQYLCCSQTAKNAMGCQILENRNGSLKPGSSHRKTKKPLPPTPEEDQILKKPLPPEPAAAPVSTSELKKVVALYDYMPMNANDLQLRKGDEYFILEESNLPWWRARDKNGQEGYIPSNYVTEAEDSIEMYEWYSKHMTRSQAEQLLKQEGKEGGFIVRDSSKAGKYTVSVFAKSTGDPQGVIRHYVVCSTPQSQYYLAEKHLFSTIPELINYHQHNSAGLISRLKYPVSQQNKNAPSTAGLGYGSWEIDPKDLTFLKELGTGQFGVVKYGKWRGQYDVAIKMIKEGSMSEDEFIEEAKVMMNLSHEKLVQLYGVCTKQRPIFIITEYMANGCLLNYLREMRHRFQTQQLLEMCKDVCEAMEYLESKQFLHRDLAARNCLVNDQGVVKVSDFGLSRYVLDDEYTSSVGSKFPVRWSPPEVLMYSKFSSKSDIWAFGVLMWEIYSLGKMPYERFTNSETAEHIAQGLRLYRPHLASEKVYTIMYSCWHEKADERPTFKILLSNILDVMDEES

| SMILES | IC50 [1] [µM] | inhibition at 10 µM [2] [%] |
| --- | --- | --- |
| N#CCc1n[nH]c2nc(SCc3ccccc3)nc(Nc3nnc(S)s3)c12 [NSC724520] | 2.1 | – |
| COc1ccc(/C=N/Nc2nc(SCc3ccccc3)nc3[nH]ncc23)cc1OC [NSC726558] | – | 59 |
| C(=Nc1nc(NCc2ccccc2)nc2[nH]ncc12)c1cccs1 [NSC726593] | 5 | – |

Continued by falling IC50 [1], values first:

| IC50 [1] [µM] | SMILES | inhibition at 10 µM [2] [%] |
| --- | --- | --- |
| 1.6 | O=C(Sc1nc(SC(=O)c2ccccc2)c2cn[nH]c2n1)c1ccccc1 [NSC722944] | – |
| 0.84 | C(=Nc1nc(N2CCOCC2)nc2[nH]ncc12)c1ccco1 [NSC725686] | – |
